Measured values reported in PMC4725915, “Ruthenium(II) Complexes with 2-Phenylimidazo[4,5-f][1,10]phenanthroline Derivatives that Strongly Combat Cisplatin-Resistant Tumor Cells” (Scientific Reports, 2016).

Experiments:
Type in all cases: cell-based, human
A549R = experiment: MTT cytotoxicity assay, cisplatin-resistant A549R; conditions: 48 h, mean ± SD of three experiments
Protocol: (§1) Compounds 1–4 were evaluated against three tumor cell lines derived from different tissues, including the cervix (HeLa), lung (A549) and cisplatin-resistant lung (A549R) tissues. For comparison, the cytotoxicity of cisplatin was also evaluated. As a control, the toxicities of the complexes were also tested against the normal human cell line (LO2).
(§2) The human cervix carcinoma cell line (HeLa), the lung carcinoma cell lines (A549 and A549R), and the human hepatocyte cell line (LO2) were obtained from the Experimental Animal Center at Sun Yat-Sen University (Guangzhou, China). The cells were maintained in Dulbecco’s modified Eagle’s medium (DMEM, Gibco BRL) or Roswell Park Memorial Institute 1640 (RPMI 1640, Gibco BRL) medium supplemented with 10% fetal bovine serum (FBS, Gibco BRL), 100 μg/mL streptomycin, and 100 U/mL penicillin (Gibco BRL) in a humidified incubator under 5% CO2 and 20% O2 at 37 °C. To maintain the resistant phenotype, A549R cells were incubated with 5 μM cisplatin and cultured in drug-free medium for at least a week before use.
(§3) The cytotoxicity of the ruthenium complexes and cisplatin were determined by an MTT assay. Briefly, cells were seeded into 96-well microtiter plates at 1 × 10^4 cells per well and grown overnight at 37 °C in a 5% CO2 incubator; then, different concentrations of the complexes in cell culture medium were added to the cultures. The plates were then incubated in an incubator for 48 h under the same conditions. The stock MTT dye solution (15 μL, 5 mg/mL) was added to each well. After 4 h of incubation, the cultures were removed and 150 μL of DMSO was added to each well. The optical density of each well was measured on a microplate spectrophotometer at a wavelength of 595 nm.

A549R MCTSs = experiment: Growth inhibition of drug-treated MCTSs (size by imaging); conditions: 1.0 and 2.0 μM
Description: Traditional research on the efficacy of cancer drugs is usually performed in two-dimensional (2-D) cell cultures, which may not be a true indicator of the in vivo effectiveness of cancer treatments. This is in part due to the absence of cell-cell or cell-extracellular matrix interactions in 2-D cell models. Therefore, the development of cell culture models that can close the gap between conventional 2-D cell experiments and animal studies is necessary to study the cytotoxicity and anti-proliferative activities of drugs. Multicellular tumor spheroids (MCTSs) are heterogeneous cellular aggregates that have properties of solid tumors, such as nutrient and oxygen gradients, hypoxic/necrotic regions, cell-cell matrix interactions, and gene expression.
MCTSs were cultured using the liquid overlay method. A549R cells in the exponential growth phase were dissociated by a trypsin/EDTA solution to gain single-cell suspensions. A number of 3000 diluted A549R cells were transferred to 1.5% agarose-coated transparent 96-well plates with 200 μL of DMEM containing 10% serum. The single cells formed MCTS aggregates approximately 400 μm in diameter after three days with 5% CO2 and 20% O2 at 37 °C. […]

A549R cells [1] = experiment: Mitochondrial membrane potential (JC-1); conditions: different concentrations (0.5, 1.0, 2.0 μM), 24 h
Description: Mitochondria are the principal organelles related to energy metabolism and ATP synthesis; consequently, resistance against chemotherapeutic drugs can often be traced to the mitochondria. […] Mitochondrial dysfunction is involved in apoptotic cell death, and the loss of mitochondrial membrane potential (MMP, ΔΨm) is a hallmark of mitochondrial dysfunction. […] Confocal microscopy and flow cytometry were used to confirm whether complex 4-induced apoptosis occurred by damaging mitochondria, and the cationic dye JC-1 was used as the MMP-sensitive probe.
A549R cells were cultured in 6-well tissue culture plates for 24 h and treated with complex 4 (0.5, 1.0 and 2.0 μM) for 24 h. After the treatment, the cells were collected and resuspended at 1 × 10^6 cells/mL in a pre-warmed staining working solution containing JC-1 (5 μg/mL) and incubated for 15 min at 37 °C. Subsequently, the cells were washed twice with pre-warmed PBS and analyzed immediately with a flow cytometer on a FACS Canto II (BD Biosciences, USA). Red and green mean fluorescence intensities were analyzed using FlowJo 7.6 software (Tree Star, OR, USA). […] After the treatment described above, the stained cells were visualized under an inverted fluorescence microscope (Zeiss Axio Observer D1). JC-1 fluorescence was measured with single excitation (488 nm) and dual emission (shift from green 530 nm to red 590 nm).

A549 = experiment: MTT cytotoxicity assay, A549; conditions: A549, 48 h, mean ± SD of three experiments
Protocol: as §1, §2, §3

A549R cells [2] = experiment: Real-time cell growth and proliferation assay (xCELLigence)
Protocol: In addition, a real-time cell growth and proliferation assay using an xCELLigence System was utilized to confirm the high toxicity of complex 4 on A549R cells. […] In contrast, A549R cells were killed by treatment with complex 4 in a concentration-dependent manner.
This experiment was performed using an xCELLigence RTCA DP system real time cell analyzer (Roche Diagnostics GmbH, Germany). In brief, 80 μL of cell culture media was added to each well of a 16-well plate (E-plate 16, Roche Diagnostics GmbH, Germany). The 16-well plates were then connected to the system and checked for suitable electrical contacts in the real time cell analyzer, and the background impedance was measured for 24 s. Meanwhile, the A549R cells were suspended in cell culture medium and adjusted to 5 × 10^4 cells/mL, and 100 μL of each cell suspension was added to each well of […]. Approximately 24 h after seeding, the A549R cells were in the logarithmic phase of growth, and a wide range of concentrations of complex 4 and cisplatin (100 μM) were added. The cells were automatically monitored every 15 min over 48 h by the xCELLigence system. Data were analyzed using RTCA software (version 1.2) that was supplied with the instrument.

Which IC50 (A549R) does the source give for Ru(phen)(bzq)(tbtfpip)(PF6) [Complex 4] here?
Its IC50 is 800 ± 100 nM.

And the “change in size of A549R MCTSs” value (A549R MCTSs)?
Its value is “decreased in size over time”.

And the “mitochondrial membrane potential (MMP)” value (A549R cells [1])?
The value was “loss of MMP”.

And the IC50 (A549)?
Its IC50 is 1000 ± 200 nM.

What about the “effect on A549R cell proliferation (xCELLigence)” value (A549R cells [2]; 0.5 μM) of the same substance?
The value was “began to die after a short delay”.

What about the “effect on A549R cell proliferation (xCELLigence)” value (A549R cells [2]; 2.0 μM) of the same substance?
Its value is “rapidly abolished cellular proliferation”.
